{"source": "patent US20160120915A1", "about": "“METHODS FOR MANIPULATING IMMUNE RESPONSES BY ALTERING MICROBIOTA” (NEW YORK UNIVERSITY, priority 2013, published 2016)", "key": {"[1]": {"test_system": "small intestinal lamina propria T-helper cells", "test": "NOD: flow cytometry of Treg and Th17 cells in spleen and SI-LP", "format": "in vivo, NOD mice", "conditions": "for percent of SI-LP Th17 (CD4+RORγT+) cells / percent of SI-LP Treg (CD4+ FOXP3+) cells: 6-week old male NOD mice, vs controls", "experimental": "After euthanasia of the mice by CO2 asphyxiation followed by cervical dislocation, the small intestines were dissected and immediately placed in cold calcium and magnesium-free DPBS, followed by removal of the mesenteric fat and Peyer's patches. The intestines were opened longitudinally and contents were removed by washing thoroughly with cold DPBS. The intestines were then cut into 2 cm pieces and treated with 10 ml 1 mM DTT/PBS, shaken at RT for 10 minutes to remove contaminating intraepithelial lymphocytes. Subsequently, the intestinal tissue was treated two times with 30 mM EDTA and 10 mM HEPES in PBS to remove epithelial cells. To isolate lamina propria lymphocytes, intestinal tissue was digested for 1.5 hours at 37° C. in digestion mix (0.5 mg/ml Collagenase/Dispase (Roche), 150 μg /ml DNase 1 (Sigma) in complete RPMI. Cells were passed through a 100 μm diameter nylon mesh filter (BD Bioscience). For further purification of leukocytes, intestinal cell suspensions were resuspended in 40% Percoll, under-layered with 80% Percoll (GE Healthcare Life Sciences) and centrifuged at 2,200 rpm for 25 minutes at room temperature. The leukocytes were collected at the interphase of the 40% 80% discontinuous Percoll gradient, then washed and re-suspended in DPBS for staining.\nCells were incubated with blue Live/DEAD fixable dye (Invitrogen) for 10 minutes at 4° C. to identify live cells. Intestinal leukocytes were phenotyped using the following antibodies: CD3-APC-Cy™7 (BD Biosciences), CD4− PE-Alexa Fluor 610 (Invitrogen), CD8− V500 (BD Biosciences), RORγt-PE (eBioscience), Foxp3-PE-Cy7 (eBioscience). Cells were first incubated with surface antibodies (each at 1:50 in FACS buffer) along with FC block (Anti-Mouse CD16/CD32, eBioscience) at 1:200 for 30 minutes at 4° C. Then the cells were fixed and permeabilized with Fix/Perm (eBioscience) and subsequently incubated with the nuclear antibodies in perm/wash buffer for 30 minutes at 4° C. (eBioscience).\nAll cells were acquired on a LSRII (BD Biosciences) and analyzed using FlowJo software (version 9.3.2; Tree Star Inc.).\nFlow cytometry was performed on splenic and SI-LP cells from 6-week old male and female NOD mice. CD3 and CD4 surface stains and a live/dead stain were used to gate on live T-helper cells. Nuclear staining for FOXP3 and RORγT was performed to identify Treg and Th17 cells, respectively. By qPCR, SFB was below detectable limits in fecal specimens collected at 3 weeks and 6 weeks of age from all of the mice used in the above analysis. The range for SFB qPCR assay was from 10^2 to 10^6 copies of SFB. […] PAT decreased the percent of SI-LP Treg and Th17 cells in male, but not female NOD mice. C=controls, S=STAT, P=PAT. Statistical analysis was performed on each tissue separately, using the Kruskal-Wallis test followed by the Dunn's multiple comparison test, ** p≦0.01. […] This work provides evidence that PAT changes T-cell populations in the NOD mice that are developing T1D and insulitis earlier."}, "[2]": {"test_system": "splenic CD4+ and CD8+ T-cells", "test": "NOD: flow cytometry of IFNγ-producing splenic T-cells", "format": "in vivo", "conditions": "6-week old male NOD mice, n=7, vs controls, p<0.01", "experimental": "Leukocytes were isolated from spleens harvested from 6-week old control (n=7) and PAT-treated (n=7) NOD mice. Flow cytometric analysis was performed to assess T-cell cytokine production. Mann-Whitney U-test, ** p<0.01. Bar heights represent the means and error bars represent the standard deviations. […] Taxa with at least two significant timepoints (indicated by *) are illustrated at the phylum, genus, and species level. Dark grey and light grey coloration indicates enrichment at the specified time point in control and in PAT specimens, respectively."}, "NOD mice": {"test_system": "NOD mice", "test": "NOD PAT/STAT: type 1 diabetes incidence", "format": "in vivo, NOD/ShiLTj mice", "source_text": "Pregnant NOD/ShiLTj mice were randomized into 3 groups: Control, STAT, and PAT. Control mice were maintained on non-acidified sterilized water. STAT pregnant dams were given low dose penicillin beginning late in pregnancy until pups were 12 weeks of age. PAT mice were given 3 therapeutic doses of tylosin starting on day 10 of life. At 6 weeks of age, 13 male (5 control, 3 STAT, 5 PAT) and 15 female (5 per group) NOD mice were sacrificed for immune-phenotyping by flow cytometry and ileal gene expression analysis by microarray and qPCR. From 10 weeks of age to 31 weeks of age, mice were tested for diabetes weekly by blood glucose measurement and urinary glucose detection. Onset of diabetes was defined as two consecutive weeks of blood glucose >250 mg/dl and glucosuria.\nFor the NOD experiments, dams (and their litters) were divided into control, STAT, and PAT groups (FIG. 33). The control mice were given non-acidified sterilized water throughout the experiments, and for the 2 antibiotic groups (STAT and PAT), the antibiotics were dissolved in non-acidified sterilized water. For STAT, subtherapeutic penicillin VK (1 mg/kg/day) was added to the drinking water in late pregnancy (so that the pups pass through an altered vaginal microbiota), and then continued until day 84 of life. […] Mice were monitored for diabetes onset by glucosuria and blood glucose, starting at 10 weeks of age. […]"}}, "note": "Entries after “also recorded” stand apart in the source; their conditions may differ. Counter-ions that a name gives are not always drawn.", "data": [{"compound": "CC[C@H]1OC(=O)C[C@@H](O)[C@H](C)[C@@H](O[C@@H]2O[C@H](C)[C@@H](O[C@H]3C[C@@](C)(O)[C@@H](O)[C@H](C)O3)[C@H](N(C)C)[C@H]2O)[C@@H](CC=O)C[C@@H](C)C(=O)/C=C/C(C)=C/[C@@H]1CO[C@@H]1O[C@H](C)[C@@H](O)[C@@H](OC)[C@H]1OC", "note": "[Tylosin, Tylosin tartrate]", "values": [{"measurement": "decrease of percent of SI-LP Treg and Th17 cells", "setting": "[1]; 6-week old female NOD mice", "value": "not"}, {"measurement": "percent of SI-LP Th17 (CD4+RORγT+) cells", "setting": "[1]", "value": "decreased"}, {"measurement": "percent of SI-LP Treg (CD4+ FOXP3+) cells", "setting": "[1]", "value": "decreased"}, {"measurement": "proportion of IFNγ-producing splenic CD4+ T-cells", "setting": "[2]", "value": "increased"}, {"measurement": "proportion of IFNγ-producing splenic CD8+ T-cells", "setting": "[2]", "value": "increased"}, {"measurement": "development of T1D (diabetes incidence)", "setting": "NOD mice; male NOD mice, onset = 2 consecutive weeks blood glucose >250 mg/dl and glucosuria, vs control, listed as PAT", "value": "accelerated; also recorded: higher rate"}]}, {"compound": "CC1(C)S[C@@H]2[C@H](NC(=O)COc3ccccc3)C(=O)N2[C@H]1C(=O)[O-].[K+]", "note": "[STAT, penicillin VK]", "values": [{"measurement": "percent of SI-LP Th17 (CD4+RORγT+) cells", "setting": "[1]", "value": "intermediate"}, {"measurement": "percent of SI-LP Treg (CD4+ FOXP3+) cells", "setting": "[1]", "value": "intermediate"}, {"measurement": "type 1 diabetes expression", "setting": "NOD mice; NOD mice, STAT-antibiotic-treated", "value": "no different from controls"}]}]}
